According to patent publication US8754226B2, “Piperidinyl-substituted lactams as GPR119 modulators” (Array BioPharma Inc., priority 2010, dated 2014):
Structures can show the parent of a compound that is named as a salt.

Tested on: modified version of the GPR119 receptor (94% identity to human receptor)
Assay: cAMP production assay (LANCE cAMP kit, TR-FRET) in HEK-293 cells
Type: cell-based
Details: for cAMP production in HEK-293 cells: HEK-293 cells stably expressing modified GPR119, test compounds 0.2 nM to 10 μM, one-hour incubation at ambient temperature; for Fold over baseline: increase in cAMP relative to basal levels, agonist activity if 1.5-fold or greater
How it was run: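 Doxycycline-induced (1 μg/mL, overnight) HEK-293 cells expressing modified GPR119 were thawed, 2000 cells/well, and exposed to compounds (0.2 nM-10 μM final, 0.5% DMSO) for 1 h at ambient temperature in HBSS/HEPES/BSA. cAMP was measured by LANCE TR-FRET against a standard curve. Agonism was defined as ≥1.5-fold over basal.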

Compound	cAMP production in HEK-293 cells	Fold over baseline
CC(C)c1cnc(N2CCC(N3CC[C@H](Nc4ccc(S(C)(=O)=O)cc4F)C3=O)CC2)nc1 [Example 29, (S)-3-(2-fluoro-4-(methylsulfonyl)phenylamino)-1-(1-(5-isopropylpyrimidin-2-yl)piperidin-4-yl)pyrrolidin-2-one trifluoroacetate]	11.5 nmol	2.1
CS(=O)(=O)c1ccc(N[C@H]2CCN(C3CCN(c4ncc(CO)cc4Cl)CC3)C2=O)c(F)c1 [Example 156, (S)-1-(1-(3-chloro-5-(hydroxymethyl)pyridin-2-yl)piperidin-4-yl)-3-(2-fluoro-4-(methylsulfonyl)phenylamino)pyrrolidin-2-one]	17.3 nmol	2.3
CS(=O)(=O)c1ccc(N[C@H]2CCN(C3CCN(c4cncc(Cl)n4)CC3)C2=O)c(F)c1 [Example 18, (S)-1-(1-(6-chloropyrazin-2-yl)piperidin-4-yl)-3-(2-fluoro-4-(methylsulfonyl)phenylamino) pyrrolidin-2-one]	7.7 nmol	1.8
CCc1ccc(N2CCC(N3CC[C@H](Nc4ccc(S(C)(=O)=O)cc4F)C3=O)CC2)nc1 [Example 27A, (S)-1-(1-(5-Ethylpyridin-2-yl)piperidin-4-yl)-3-(2-fluoro-4-(methylsulfonyl)phenylamino)pyrrolidin-2-one]	12.9 nmol	2.9
CS(=O)(=O)c1cc(F)c(N[C@H]2CCN(C3CCN(c4ccc(C(F)(F)F)cn4)CC3)C2=O)cc1F [Example 104, (S)-3-(2,5-difluoro-4-(methylsulfonyl)phenyl-amino)-1-(1-(5-(trifluoro-methyl)pyridin-2-yl)piperidin-4-yl)pyrrolidin-2-one]	13.5 nmol	2.8
CS(=O)(=O)c1ccc(O[C@H]2CCN(C3CCN(c4ncc(C(F)(F)F)cc4Cl)CC3)C2=O)c(F)c1 [Example 136, (S)-1-(1-(3-chloro-5-(trifluoromethyl)pyridin-2-yl)piperidin-4-yl)-3-(2-fluoro-4-(methyl-sulfonyl)phenoxy)pyrrol-idin-2-one]	36.5 nmol	3.0
CS(=O)(=O)c1ccc(O[C@H]2CCN(C3CCN(c4ncc(C(F)(F)F)cc4F)CC3)C2=O)cn1 [Example 142, (S)-1-(1-(3-fluoro-5-(trifluoromethyl)pyridin-2-yl)piperidin-4-yl)-3-(6-(methylsulfonyl)pyridin-3-yloxy) pyrrolidin-2-one]	21.7 nmol	8.3
CS(=O)(=O)c1cc(F)c(N[C@H]2CCCN(C3CCN(c4ncc(Cl)cn4)CC3)C2=O)cc1F [Example 50, (S)-1′-(5-chloropyrimidin-2-yl)-3-(2,5-difluoro-4-(methylsulfonyl)phenylamino)-[1,4′-bipiperidin]-2-one]	11.4 nmol	2.3
CS(=O)(=O)c1cc(F)c(OC2CCN(C3CCN(c4ncc(-c5ccccc5)cn4)CC3)C2=O)cc1F (stereo not shown) [Example 88, 3-(2,5-difluoro-4-(methylsulfonyl)phenoxy)-1-(1-(5-phenylpyrimidin-2-yl)piperidin-4-yl)pyrrolidin-2-one trifluoroactetate]	9.1 nmol	2.4
Cn1nccc1-c1cnc(N2CCC(N3CC[C@H](Nc4ccc(S(C)(=O)=O)cc4F)C3=O)CC2)nc1 [Example 32, (S)-3-(2-fluoro-4-(methylsulfonyl)phenylamino)-1-(1-(5-(1-methyl-1H-pyrazol-5-yl)pyrimidin-2-yl)piperidin-4-yl)pyrrolidin-2-one]	10.9 nmol	2.4
CS(=O)(=O)c1cc(F)c(N[C@H]2CCN(C3CCN(c4cnc(C(F)(F)F)cn4)CC3)C2=O)cc1F [Example 11, (S)-3-(2,5-difluoro-4-(methylsulfonyl)phenylamino)-1-(1-(5-(trifluoromethyl)pyrazin-2-yl)piperidin-4-yl)pyrrolidin-2-one]	27.1 nmol	3.4
